According to patent US20220380331A1, “TREATMENT OF CONDITIONS OF THE NERVOUS SYSTEM” (priority 2019, published 2022):
“Also recorded” adds a separate entry of the source.

Legend:
[1] = system: rat; conditions: in vivo, po; cited from earlier work
[2] = system: acute contusive spinal cord injury; test: Basso, Beattie and Bresnahan (BBB) HL locomotor open field test after moderate T9 contusion injury; type: in vivo, rat; conditions: daily oral treatment, 5 weeks after injury, vehicle ~10
Method: Adult female Lister-hooded rats (200-250 g) were obtained from Charles River Laboratories (Canterbury, UK). Rats were housed in pairs in Central Biomedical Services (University of Leeds, UK) in a temperature-controlled environment in (20±1° C.), with a 12 hr light/dark cycle (lights on at 07:00). All procedures and experiments complied with the UK Animals (Scientific Procedures) Act 1986. Using isofluorane as an anaesthetic (5% in 02 for induction and 1-2% in 02 for the duration of the procedure), animals were shaved and sterilised. Vertebral segments T7-13 were exposed and a dorsal laminectomy was performed at T8. Vertebral levels T7 and T8 were stabilised whilst an Infinite Horizon impactor (Precision Systems and Instrumentation, LLC, Fairfax Station, Va.) was used to provide a 200 kdyn Cx (moderate injury) at the level of T9. Muscles were sutured and the skin was closed with autoclips. Analgesia ([…] Buprenorphine; 0.015 mg/kg; Henry Schein Animal Health, Dumfries, UK) and antibiotics (Baytril enrofloxacin; 2.5 mg/kg; Henry Schein Animal Heath, Dumfries, UK) were given via subcutaneous injection immediately post-surgery and for three days following surgery. […] HL locomotor ability was assessed at various time points throughout the acute SCI paradigm using the BBB HL locomotor scale. […] Each BBB test was simultaneously assessed by two individuals. […]

[3] = system: locomotor function of intact rats; test: BBB open field locomotor testing in intact rats after ten days of oral PNNi; type: in vivo, rat; conditions: short-term treatment
Method: HL locomotor ability was assessed at various time points throughout the acute SCI paradigm using the BBB HL locomotor scale. BBB testing was carried out using an open locomotor field (custom-built Perspex O-ring: diameter 80 cm, height 30 cm) where animals were placed for a duration of 4 minutes (FIG. 2). Each BBB test was simultaneously assessed by two individuals. The resulting scores were pooled and averaged for objectivity. BBB testing assesses HL motor function using a ranking scale from 0-21. Animals are ranked into three broad categories based on their BBB score: early phase (score of 0-7) presenting little to no limb movement; intermediate stage (score of 8-13) with bouts of uncoordinated stepping; and the late stage (score of 14-21) presenting with FL and HL coordination and stability (Basso et al., 1995). Following injury, BBBs were then carried out at 1 DPI to confirm injury and then weekly from 7 DPI. If animals also received rehabilitative training, BBBs were carried out beforehand.

[4] = Nagy et al., 2015; cited from earlier work
[5] = system: sensorimotor cortical slices; test: Field potentials and paired-pulse protocols in in vitro sensorimotor cortical slices; parameters: species or system rat
Method: FIG. […]): Forelimb (FL) shifts into hindlimb (HL) area of sensorimotor cortex (M1) after perineuronal net inhibitor (PNNi) and spinal cord injury (SCI) combination. PNNi and/or injury independently enhances cortical plasticity in spinal cord injured rats. Intracortical microstimulation (ICMS) was performed at stereotaxic coordinates within a right hemisphere craniotomy 5 mm rostral/caudal to bregma (B) (A) 11 weeks post-injury. Representative heat maps per group illustrate the percentage of animals for each stereotaxic coordinate where HL (B-C) or FL (D-E) movements were able to be elicited. The Lister Hooded rat baseline HL and FL cortical maps (dotted outlines in B-E) were compared to groups with mid-thoracic SCI (B, D) and/or long-term PNNi administration (C, E) to assess structural plasticity. HL movements were unable to be elicited after SCI (B-C). Measurements for FL analysis (K-N) are illustrated in J). After PNNi and/or SCI, FL movements were elicited in areas that previously elicited HL movements (see right of white dotted outline D-E). […] G: Plot of the average field potential amplitudes vs. stimulus intensity per group. Synaptic responses were elicited in cortical layers II/III by electrical stimuli via bipolar electrodes placed in cortical layers V/VI. Recordings were performed on cortical slice at the following coordinates: ML: 2-3 mm and AP 1.40-1.8 mm caudal to bregma. […]

Cc1cc(=O)oc2cc(O)ccc12 [PNNi, 4-methylumbelliferone]
lethal dose [1]: 6200 mg/kg
BBB score [2]: ~15 scores
BBB hindlimb scale score [3]: 21
solubility in aqueous solution [4]: near insoluble
intracortical synaptic transmission ([5]; combination of SCI and PNNi treatment): increased intracortical synaptic transmission; also recorded: elevated synaptic transmission
paired-pulse inhibition (PPR) ([5]; sham animals, short and long interstimulus intervals): not altered
